Source: ChEMBL document CHEMBL1275486, “Kinetic characterization of VIM-7, a divergent member of the VIM metallo-beta-lactamase family” (Antimicrob Agents Chemother, 2008)

Columns and labels:
[1] = system: Escherichia coli; assay: Ratio of Kcat to Km for Escherichia coli beta-lactamase VIM-1 by spectrophotometry
[2] = system: Escherichia coli; assay: Activity of Escherichia coli beta-lactamase VIM-1 by spectrophotometry

Work on `CO/N=C(\C(=O)N[C@@H]1C(=O)N2C(C(=O)[O-])=C(C[N+]3(C)CCCC3)CS[C@H]12)c1csc(N)n1` yielded a kcat/Km [1] of 3.7 µM⁻¹ s⁻¹, a Km [2] of 150 µM and a kcat [2] of 550 s⁻¹.

In the case of `C[C@H]1[C@H](NC(=O)/C(=N\OC(C)(C)C(=O)O)c2csc(N)n2)C(=O)N1S(=O)(=O)O`, the Km [2] is reported as greater than 1000 µM and the kcat [2] is reported as less than 0.01 s⁻¹.

`CC1(C)S[C@@H]2[C@H](NC(=O)[C@H](N)c3ccccc3)C(=O)N2[C@H]1C(=O)O` gave a kcat/Km [1] of 0.038 µM⁻¹ s⁻¹, a Km [2] of 920 µM and a kcat [2] of 35 s⁻¹.

In the case of `CC(C)(O/N=C(\C(=O)N[C@@H]1C(=O)N2C(C(=O)[O-])=C(C[n+]3ccccc3)CS[C@H]12)c1csc(N)n1)C(=O)O`, the kcat/Km [1] is reported as 0.075 µM⁻¹ s⁻¹, the Km [2] is reported as 800 µM and the kcat [2] is reported as 60 s⁻¹.

With `CO[C@@]1(NC(=O)C(C(=O)O)c2ccc(O)cc2)C(=O)N2C(C(=O)O)=C(CSc3nnnn3C)CO[C@@H]21` (some centres undefined) the kcat/Km [1] was 0.096 µM⁻¹ s⁻¹, the Km [2] was 450 µM and the kcat [2] was 43 s⁻¹.
